According to patent US5728724A, “Benzothiophene compounds” (Eli Lilly and Company, priority 1996, dated 1998):
Counter-ions that a name gives are not always drawn.

Tests used:
[1] = system: uterus of ovariectomized (OVX) rats; assay: Uterine weight in ovariectomized rats (post-menopausal model, agonist activity); type: in vivo, Sprague Dawley rats; settings: daily for 4 days; for Uterine Weight (% increase vs. OVX): oral
Procedure: (§1) In the examples illustrating the methods, a post-menopausal model was used in which effects of different treatments upon circulating lipids were determined.
(§2) Seventy-five day old female Sprague Dawley rats (weight range of 200 to 225g) were obtained from Charles River Laboratories (Portage, Mich.). The animals were either bilaterally ovariectomized (OVX) or exposed to a Sham surgical procedure at Charles River Laboratories, and then shipped after one week. Upon arrival, they were housed in metal hanging cages in groups of 3 or 4 per cage and had ad libitum access to food calcium content approximately 0.5%) and water for one week. Room temperature was maintained at 22.2°±1.7° C. with a minimum relative humidity of 40%. The photoperiod in the room was 12 hours light and 12 hours dark.
(§3) Dosing Regimen Tissue Collection. After a one week acclimation period (therefore, two weeks post-OVX) daily dosing with test compound was initiated. […] Animals were dosed daily for 4 days. Following the dosing regimen, animals were weighed and anesthetized with a ketamine: Xylazine (2:1, V:V) mixture and a blood sample was collected by cardiac puncture. The animals were then sacrificed by asphyxiation with CO2, the uterus was removed through a midline incision, and a wet uterine weight was determined.

[2] = system: Uterine Eosinophil Peroxidase (EPO); assay: Uterine Eosinophil Peroxidase (EPO) Assay in ovariectomized rats; type: in vivo, Sprague Dawley rats; parameters: key: max velocity of A450 increase over a 15 s interval; settings: oral, daily for 4 days, OVX rats
Procedure: as §1, §2, §3
Uterine Eosinophil Peroxidase (EPO) Assay. Uteri were kept at 4° C. until time of enzymatic analysis. The uteri were then homogenized in 50 volumes of 50 mM Tris buffer (pH-8.0) containing 0.005% Triton X-100. Upon addition of 0.01% hydrogen peroxide and 10 mM O-phenylenediamine (final concentrations) in Tris buffer, increase in absorbance was monitored for one minute at 450 nm. The presence of eosonophils in the uterus is an indication of estrogenic activity of a compound. The maximal velocity of a 15 second interval was determined over the initial, linear portion of the reaction curve.

Serum Cholesterol = assay: Serum cholesterol analysis in ovariectomized rats; type: in vivo, Sprague Dawley rats; settings: daily for 4 days; for Serum Cholesterol (% decrease vs. OVX): oral
Procedure: as §1, §2, §3
Cholesterol Analysis. Blood samples were allowed to clot at room temperature for 2 hours, and serum was obtained following centrifugation for 10 minutes at 3000 rpm. Serum cholesterol was determined using a Boehringer Mannheim Diagnostics high performance cholesterol assay. Briefly the cholesterol was oxidized to cholest-4-en-3-one and hydrogen peroxide. The hydrogen peroxide was then reacted with phenol and 4-aminophenazone in the presence of peroxidase to produce a p-quinone imine dye, which was read spectrophotemetrically at 500 nm. Cholesterol concentration was then calculated against a standard curve. The entire assay was automated using a Biomek Automated Workstation.

[3] = system: MCF-7 breast adenocarcinoma cells; assay: MCF-7 Proliferation Assay (tritiated thymidine); type: cell-based; settings: 48 hours, tritiated thymidine incorporation; for IC50: Homo sapiens, MCF7
Procedure: MCF-7 breast adenocarcinoma cells (ATCC HTB 22) were maintained in MEM (minimal essential medium, phenol red-free, Sigma, St. Louis, Mo.) supplimented with 10% fetal bovine serum (FBS) (V/V), L-glutamine (2 mM), sodium pyruvate (1 mM), HEPES {(N-[2-hydroxyethyl]piperazine-N'-[2-ethanesulfonic acid]10 mM}, non-essential amino acids and bovine insulin (1 ug/mL) (maintenance medium). Ten days prior to assay, MCF-7 cells were switched to maintenance medium supplemented with 10% dextran coated charcoal stripped fetal bovine serum (DCC-FBS) assay medium) in place of 10% FBS to deplete internal stores of steroids. MCF-7 cells were removed from maintenance flasks using cell dissociation medium (Ca++/Mg++ free HBSS (phenol red-free) supplemented with 10 mM HEPES and 2 mM EDTA). Cells were washed twice with assay medium and adjusted to 80,000 cells/mL. Approximately 100 μL (8,000 cells) were added to flat-bottom microculture wells (Costar 3596) and incubated at 37° C. in a 5% CO2 humidified incubator for 48 hours to allow for cell adherence and equilibration after transfer. Serial dilutions of drugs or DMSO as a diluent control were prepared in assay medium and 50 μL transferred to triplicate microcultures followed by 50 μL assay medium for a final volume of 200 μL. After an additional 48 hours at 37° C. in a 5% CO2 humidified incubator, microcultures were pulsed with tritiated thymidine (1 uCi/well) for 4 hours. Cultures were terminated by freezing at -70° C. for 24 hours followed by thawing and harvesting of microcultures using a Skatron Semiautomatic Cell Harvester. Samples were counted by liquid scintillation using a Wallac BetaPlace β counter. Results in Table 2 below show the IC50 for certain compounds of the present invention.

[4] = Rattus norvegicus, po, 96 h, 0.1 mg/kg, read-out: Uterine Weight (% increase vs. OVX)
[5] = Rattus norvegicus, po, 96 h, 1.0 mg/kg, read-out: Uterine Weight (% increase vs. OVX)
[6] = Rattus norvegicus, po, 96 h, 10.0 mg/kg, read-out: Uterine Weight (% increase vs. OVX)
[7] = Rattus norvegicus, po, 96 h, 0.1 mg/kg, OVX rats, read-out: Serum Cholesterol (% decrease vs. OVX)
[8] = Rattus norvegicus, po, 96 h, 1.0 mg/kg, OVX rats, read-out: Serum Cholesterol (% decrease vs. OVX)
[9] = Rattus norvegicus, po, 96 h, 10.0 mg/kg, OVX rats, read-out: Serum Cholesterol (% decrease vs. OVX)

Row | SMILES | change in vivo at 0.1 mg/kg [1, 4] [%] | change in vivo at 1 mg/kg [1, 5] [%] | change in vivo at 10 mg/kg [1, 6] [%] | Uterine EPO (V. max) ([2]; 0.1 mg/kg) | Uterine EPO (V. max) ([2]; 1.0 mg/kg) | Uterine EPO (V. max) ([2]; 10.0 mg/kg) | inhibition in vivo at 0.1 mg/kg (Serum Cholesterol; [7]) [%] | inhibition in vivo at 1 mg/kg (Serum Cholesterol; [8]) [%] | inhibition in vivo at 10 mg/kg (Serum Cholesterol; [9]) [%] | IC50 [3] [nM] | IC50, MCF-7 proliferation [3] | further results
1 | O=C(c1ccc(OCCN2CCCCC2)cc1)c1c(-c2ccc3ccccc3c2)sc2cc(O)ccc12 [Example 4, [2-(2-Naphthyl)-6-hydroxybenzothien-3-yl][4-[2-(1-piperdinyl)ethoxy]phenyl]methanone] | 72.7 | 46.8 | 59.5 | 12.3 | 42.9 | 35.7 | 48.1 | 54.5 | 63.6 | 80 |  | 
2 | O=C(c1ccc(OCCN2CCCCC2)cc1)c1c(Cc2ccc(O)cc2)sc2cc(O)ccc12 [Example 11, [2-(4-Hydroxyphenyl)methyl-6-hydroxybenzothien-3-yl][4-[2-(1-piperdinyl)ethoxy]phenyl]methanone] | 80.5 | 44.6 | 46.9 | 16.5 | 18.9 | 40.5 | 43 | 35.3 | 68.3 | 5 |  | change in vivo at 0.01 mg/kg ([1]; Rattus norvegicus, po, 96 h, 0.01 mg/kg, read-out: Uterine Weight (% increase vs. OVX)): 77.9%; Uterine EPO (V. max) ([2]; 0.01 mg/kg): 33.0; inhibition in vivo at 0.01 mg/kg (Serum Cholesterol; Rattus norvegicus, po, 96 h, 0.01 mg/kg, OVX rats, read-out: Serum Cholesterol (% decrease vs. OVX)): 41%
3 | O=C(c1ccc(OCCN2CCCCC2)cc1)c1c(-c2ccsc2)sc2cc(O)ccc12 [Example 9] | 8.8 | 1.2 | 54.3 | 0.9 | 3.3 | 2.4 | 0.6 | 29.8 | 31.9 | 10 |  | 
4 | COc1ccc2c(C(=O)c3ccc(OCCN4CCCCC4)cc3)c(-c3ccsc3)sc2c1 [Example 8] | 6.6 | 10.3 | 21.3 | 3.0 | 0.9 | 4.2 | -23.4 | -3.5 | 35 |  | Not active at the concentration tested | 
5 | COc1ccc2c(C(=O)c3ccc(OCCN4CCCCC4)cc3)c(-c3cccs3)sc2c1 [Example 6, [2-(2-Thienyl)-6-methoxybenzothien-3-yl][4-[2-(1-piperdinyl)ethoxy]phenyl]methanone hydrochloride] |  |  |  |  |  |  |  |  |  |  |  | Uterine Weight (% increase vs. OVX) ([1]; 0.1 mg/kg, hydrochloride): 3.4%; Uterine Weight (% increase vs. OVX) ([1]; 1.0 mg/kg, hydrochloride): 4.2%; Uterine Weight (% increase vs. OVX) ([1]; 10.0 mg/kg, hydrochloride): 9.5%; Uterine EPO (V. max) ([2]; 0.1 mg/kg, hydrochloride): 3.3; Uterine EPO (V. max) ([2]; 1.0 mg/kg, hydrochloride): 4.8; Uterine EPO (V. max) ([2]; 10.0 mg/kg, hydrochloride): 4.8; Serum Cholesterol (% decrease vs. OVX) (Serum Cholesterol; 0.1 mg/kg, hydrochloride): 23.1%; Serum Cholesterol (% decrease vs. OVX) (Serum Cholesterol; 1.0 mg/kg, hydrochloride): 35.8%; Serum Cholesterol (% decrease vs. OVX) (Serum Cholesterol; 10.0 mg/kg, hydrochloride): 29.6%
6 | O=C(c1ccc(OCCN2CCCCC2)cc1)c1c(-c2cccc3ccccc23)sc2cc(O)ccc12 [Example 2, [2-(1-Naphthyl)-6-hydroxybenzothien-3-yl][4-[2-(1-piperdinyl)ethoxy]phenyl]methanone] | 28.8 | 28.1 | 21.2 | 4.5 | 4.8 | 3.6 | 56 | 60.6 | 70.6 | 0.8 |  | 
7 | COc1ccc(Cc2sc3cc(OC)ccc3c2C(=O)c2ccc(OCCN3CCCCC3)cc2)cc1 [Example 10, [2-(4-Methoxyphenyl)methyl-6-methoxybenzothien-3-yl][4-[2-(1-piperdinyl)ethoxy]phenyl]methanone] | -5.6 | 39.2 | 45.2 | 6.6 | 46.2 | 65.4 | 10.3 | 49 | 50 |  | Not active at the concentration tested | 
8 | COc1ccc2c(C(=O)c3ccc(OCCN4CCCCC4)cc3)c(-c3cccs3)sc2c1 [Example 5, [2-(2-Thienyl)-6-methoxybenzothien-3-yl][4-[2-(1-piperdinyl)ethoxy]phenyl]methanone] | 2.4 |  |  | 3.0 | 3.3 | 4.2 |  |  | 26.3 |  | Not active at the concentration tested | Uterine Weight (% increase vs. OVX) ([1]; 1.0 mg/kg): 1.4%; Uterine Weight (% increase vs. OVX) ([1]; 10.0 mg/kg): 28.6%; Serum Cholesterol (% decrease vs. OVX) (Serum Cholesterol; 0.1 mg/kg): 6%; Serum Cholesterol (% decrease vs. OVX) (Serum Cholesterol; 1.0 mg/kg): -10.2%
9 | O=C(c1ccc(OCCN2CCCCC2)cc1)c1c(-c2cccs2)sc2cc(O)ccc12 [Example 7, [2-(2-Thienyl)-6-hydroxybenzothien-3-yl][4-[2-(1-piperdinyl)ethoxy]phenyl]methanone] | -1.7 | 32.4 | 46.9 | 1.8 | 4.5 | 8.4 | -18.6 | -0.9 | 51.4 | 20 |  | 
